# Like-named read-outs stand apart in the source and are kept apart here.
# Assays:
# in vivo = experiment: in vivo
# Description: The LC-MS analysis was conducted using a Waters Acquity UPLC I-Class system (Waters, USA) coupled with a Xevo TQ-XS mass spectrometer equipped with a heated electrospray ionization source. Chromatographic separation was carried out on an Acquity UPLC HSS T3 C18 column (2.1 mm × 50 mm, 1.8 μm) from Waters, USA, with a flow rate of 0.4 mL/min and a column oven temperature of 40°C. The mobile phase consisted of 0.1% aqueous formic acid (A) and acetonitrile (B). The gradient elution program was as follows: 0–2.0 min, 10%–60% B; 2.0–2.2 min, 60%–95% B; 2.2–3.2 min, 95% B; 3.2–3.5 min, 95%–10% B; and 3.5–5.5 min, 10% B. Mass spectrometric detection was conducted using both positive and negative ionization modes. The source parameters used were as follows: a spray voltage of 1.00 KV, capillary temperature set at 500°C, desolvation flow maintained at 1000 L/h, cone gas (nitrogen) flow at 150 L/h, and a cone voltage of 5 V. The collision energy and precursor to production transition m/z for each analyte are found in Table 1. The data acquisition was performed in multiple reaction monitoring (MRM) mode.
# Subsequently, a volume of 400 μL of acetonitrile was added to a 100 μL plasma sample. The resulting mixture was subjected to vortexing for 1 minute and centrifuged at a force of 21367 g for 10 minutes at a temperature of 4°C. The resulting supernatant was subjected to evaporation, followed by reconstitution in a volume of 100 μL of 10% acetonitrile. This reconstituted solution was then centrifuged at a force of 21367 g, and subsequently, a volume of 4 μL of the resulting supernatant was used for UPLC-ESI-MS/MS analysis.
# The study used six Bama miniature pigs (70 days old, weighing 20 ± 2 kg) obtained from the Experimental Animal Center, Shandong Lvdu Bio-Sciences and Technology Co., Ltd. (Binzhou, China). The pigs were housed under controlled conditions with a temperature of 25 ± 1°C, relative humidity of 65% ± 10%, and a 12/12 h light/dark cycle. The pigs were provided with standard pig feed and water ad libitum, in accordance with the guidelines outlined in the National Institutes of Health Guide for Care and Use of Laboratory Animals. […] Blood samples (0.5 mL each) were collected from the jugular vein of each pig into heparinized tubes at specific time intervals (0.5 h, 1.0 h, 4.0 h, 8.0 h, 12.0 h, 15.0 h, and 24.0 h) following intragastric administration. The blood sample was promptly subjected to centrifugation at a force of 3400 × g for 10 minutes. The resulting supernatant plasma was collected and preserved at a temperature of −80°C until subsequent preparation for LC-MS analysis. The concentration-time data of the analytes were evaluated using either noncompartmental or compartmental methods with the aid of the PKSolver 2.0 software package, and subsequently, pharmacokinetic parameters were computed. The outcomes are presented as the arithmetic mean accompanied by the standard deviation (SD).
# [1] = set-up: method as in PMID 28871816; details: rats, cited from earlier work
# [2] = set-up: method as in PMID 10891884; details: beagle dogs, oral 300 mg of palmatine; cited from earlier work
# [3] = set-up: method as in PMID 33217008; details: rats, oral 10 mg/kg obacunone; cited from earlier work
# [4] = set-up: method as in PMID 34331552; details: rats, fruit of Tetradium ruticarpum and licorice extracts together; cited from earlier work
# [5] = Bama miniature, pig, in vivo, po
# [6] = pig plasma, oral BTWD 1.0 mL/kg
# [7] = pig plasma, single oral BTWD 1.0 mL/kg, n = 6, mean ± SD
# [8] = Bama miniature, pig, plasma, po, 1 mL/kg
# [9] = Bama miniature, pig, plasma, po, 1 mL/kg, C max, pig plasma, single oral BTWD 1.0 mL/kg, n = 6, mean ± SD
# [10] = Bama miniature, pig, in vivo, po, C max
# [11] = Bama miniature, pig, in vivo, po, 1 mL/kg
smiles,measurement,setting,value
"COc1cc2c(cc1O)C[C@H]1c3cc(O)c(OC)cc3CC[N@@+]1(C)C2 [Phellodendrine, phellodendrine]",AUC0− inf,"in vivo; pig, in vivo, po",73.39 ± 2.80 ng·h/mL
same,AUC0−t,"in vivo; pig, in vivo, po",69.72 ± 2.62 ng·h/mL
same,C max,"in vivo; pig, in vivo, po",8.18 ± 0.21 ng/mL
same,CL/F,"in vivo; pig, in vivo, po",12.41 ± 0.47 mL/h
same,Cmax (in words),"in vivo; pig, in vivo, po",low Cmax
same,MRT,"in vivo; pig, in vivo, po",11.39 ± 0.14 h
same,T max,"in vivo; pig, in vivo, po",12.00 h
same,concentration-time profile (shape),"in vivo; pig, in vivo, po",biphasic patterns
same,plasma concentrations,"in vivo; pig, in vivo, po",below 10.0 ng/mL
same,t 1/2,"in vivo; pig, in vivo, po",3.81 ± 0.10 h
COc1cc2c(cc1OC)-c1cc3ccc(OC)c(OC)c3c[n+]1CC2 [palmatine],concentration at 12 h,in vivo; [5],5.79 ng/mL
same,plasma concentration (in words),"in vivo; pig, in vivo, po",below the threshold required for the analysis of PK behavior
same,Cmax,[1]; oral Coptis root granules,2.14 ± 0.68 ng/mL
same,Tmax,[1]; oral Coptis root granules,0.36 ± 0.074 h
same,Cmax,[1]; oral Shuanghua Baihe tablets,2.50 ± 0.43 ng/mL
same,Tmax,[1]; oral Shuanghua Baihe tablets,3.22 ± 0.81 h
same,Cmax,[2],8 ng/mL
same,Tmax,[2],5 h
"C=C(C)[C@@H]1CC[C@]2(C(=O)O[C@@H]3O[C@H](CO[C@@H]4O[C@H](CO)[C@@H](O[C@@H]5O[C@@H](C)[C@H](O)[C@@H](O)[C@H]5O)[C@H](O)[C@H]4O)[C@@H](O)[C@H](O)[C@H]3O)CC[C@]3(C)[C@H](CC[C@@H]4[C@@]5(C)CC[C@H](O[C@@H]6OC[C@H](O)[C@H](O)[C@H]6O[C@@H]6O[C@@H](C)[C@H](O)[C@@H](O)[C@H]6O)[C@@](C)(CO)[C@@H]5CC[C@]43C)[C@@H]12 [Pulchinenoside B4, pulchinenoside B4]",absorption and elimination (in words),"in vivo; pig plasma, oral BTWD",rapidly absorbed and eliminated from the plasma
same,concentration-time profile (shape),in vivo; [6],biphasic patterns
same,AUC0− inf,in vivo; [7],2580.65 ± 89.09 ng·h/mL
same,AUC0−t,in vivo; [7],2525.63 ± 87.16 ng·h/mL
same,C max,in vivo; [7],276.70 ± 10.54 ng/mL
same,CL/F,in vivo; [7],1.36 ± 0.05 mL/h
same,MRT,in vivo; [7],9.57 ± 0.14 h
same,T max,in vivo; [7],1.00 h
same,t 1/2,in vivo; [7],3.27 ± 0.17 h
"O=c1ccc2cc(O)c(O)cc2o1 [Esculetin, esculetin]",AUC(0-inf),in vivo; [8],994 ± 27.8 ng·h/mL
same,AUC(0-t),in vivo; [8],980 ± 26.4 ng·h/mL
same,MRT,in vivo; [8],8.97 ± 0.08 h
same,Tmax,in vivo; [8],4 h
same,half-life,in vivo; [8],2.91 ± 0.08 h
same,Cmax,in vivo; [9],78.1 ± 1.68 ng/mL
same,concentration-time profile (shape),in vivo; [6],biphasic patterns
same,C max,in vivo; [7],78.17 ± 1.68 ng/mL
same,CL/F,in vivo; [7],0.76 ± 0.02 mL/h
"COc1cc2c(cc1O)-c1cc3ccc(OC)c(OC)c3c[n+]1CC2 [Columbamine, columbamine]",AUC(0-inf),in vivo; [8],31 ± 1.36 ng·h/mL
same,AUC(0-t),in vivo; [8],28.4 ± 1.31 ng·h/mL
same,MRT,in vivo; [8],12.5 ± 2.8 h
same,Tmax,in vivo; [8],12 h
same,half-life,in vivo; [8],6.74 ± 5.08 h
same,Cmax,in vivo; [9],3.8 ± 0.08 ng/mL
same,Cmax (in words),"in vivo; pig plasma, oral BTWD",low Cmax
same,concentration-time profile (shape),in vivo; [6],biphasic patterns
same,plasma concentrations,"in vivo; pig plasma, oral BTWD 1.0 mL/kg, upper bound stated in text",below 10.0 ng/mL
same,CL/F,in vivo; [7],17.54 ± 0.76 mL/h
"CC1(C)OC(=O)C=C[C@]2(C)[C@H]3CC[C@@]4(C)[C@H](c5ccoc5)OC(=O)[C@H]5O[C@]54[C@]3(C)C(=O)C[C@@H]12 [Obacunone, obacunone]",AUC0− inf,in vivo; [5],1146.51 ± 7.38 ng·h/mL
same,AUC(0-t),in vivo; [5],111 ± 3.9 ng·h/mL
same,MRT,in vivo; [5],17.4 ± 3 h
same,Tmax,in vivo; [5],3.49 ± 0.07 h
same,half-life,in vivo; [5],0.88 ± 0.15 h
same,Cmax,in vivo; [10],7.39 ± 0.71 ng/mL
same,CL/F,"in vivo; pig, in vivo, po",0.37 ± 0.02 mL/h
same,Cmax (in words),"in vivo; pig, in vivo, po",low Cmax
same,MRT,[3],4.30 ± 0.16 h
same,Tmax,[3],1 to 2 h
same,MRT,[4],4.90 ± 2.60 h
same,Tmax,[4],1.67 ± 0.29 h
"COc1cc2ccc(=O)oc2c(O)c1O [Fraxetin, fraxetin]",AUC(0-inf),in vivo; [5],159 ± 9.33 ng·h/mL
same,AUC(0-t),in vivo; [5],159 ± 9.33 ng·h/mL
same,MRT,in vivo; [5],0.98 ± 0.01 h
same,Tmax,in vivo; [5],0.49 ± 0.01 h
same,half-life,in vivo; [5],0.33 h
same,Cmax,in vivo; [10],119 ± 6.14 ng/mL
same,absorption and elimination (in words),"in vivo; pig plasma, oral BTWD",rapidly absorbed and eliminated from the plasma
same,concentration-time profile (shape),in vivo; [6],biphasic patterns
same,CL/F,in vivo; [7],9.72 ± 0.56 mL/h
"O=c1ccc2cc(O[C@@H]3O[C@H](CO)[C@@H](O)[C@H](O)[C@H]3O)c(O)cc2o1 [Esculin, esculin]",AUC(0-inf),in vivo; [11],876 ± 124 ng·h/mL
same,AUC(0-t),in vivo; [11],531 ± 52.8 ng·h/mL
same,Cmax,in vivo; [11],66.4 ± 1.91 ng/mL
same,MRT,in vivo; [11],25.1 ± 1.91 h
same,Tmax,in vivo; [11],1 h
same,half-life,in vivo; [11],16.6 ± 1.48 h
same,concentration-time profile (shape),in vivo; [6],biphasic patterns
same,CL/F,in vivo; [7],3.25 ± 0.43 mL/h
"COc1cc2ccc(=O)oc2c(O[C@@H]2O[C@H](CO)[C@@H](O)[C@H](O)[C@H]2O)c1O [Fraxin, fraxin]",AUC(0-inf),in vivo; [5],53.5 ± 2.78 ng·h/mL
same,AUC(0-t),in vivo; [5],53.2 ± 2.7 ng·h/mL
same,MRT,in vivo; [5],1.07 ± 0.04 h
same,Tmax,in vivo; [5],0.53 ± 0.02 h
same,half-life,in vivo; [5],0.36 ± 0.01 h
same,Cmax,in vivo; [10],36.8 ± 0.48 ng/mL
same,absorption and elimination (in words),"in vivo; pig plasma, oral BTWD",rapidly absorbed and eliminated from the plasma
same,CL/F,in vivo; [7],36.38 ± 1.84 mL/h
"c1c2c(cc3c1OCO3)-c1cc3ccc4c(c3c[n+]1CC2)OCO4 [Coptisine chloride, coptisine chloride]",AUC(0-inf),in vivo; [5],69.8 ± 1.42 ng·h/mL
same,AUC(0-t),in vivo; [5],59.88 ± 0.15 ng·h/mL
same,MRT,in vivo; [5],14.3 ± 0.31 h
same,Tmax,in vivo; [5],12 h
same,half-life,in vivo; [5],5.7 ± 0.33 h
same,plasma concentrations,in vivo; [5],below 10.0 ng/mL
same,Cmax,in vivo; [10],5.9 ± 0.15 ng/mL
same,CL/F,"in vivo; pig, in vivo, po",6.56 ± 0.14 mL/h
same,Cmax (in words),"in vivo; pig, in vivo, po",low Cmax
same,concentration-time profile (shape),"in vivo; pig, in vivo, po",biphasic patterns
"COc1ccc2cc3[n+](cc2c1OC)CCc1cc2c(cc1-3)OCO2 [Berberine, berberine]",AUC(0-inf),in vivo; [5],209 ± 13.6 ng·h/mL
same,AUC(0-t),in vivo; [5],202 ± 12.7 ng·h/mL
same,MRT,in vivo; [5],11.07 ± 0.03 h
same,Tmax,in vivo; [5],12 h
same,half-life,in vivo; [5],3.14 ± 0.13 h
same,Cmax,in vivo; [10],28.4 ± 0.83 ng/mL
same,Cmax (in words),"in vivo; pig plasma, oral BTWD",low Cmax
same,concentration-time profile (shape),in vivo; [6],biphasic patterns
same,CL/F,in vivo; [7],14.82 ± 0.93 mL/h
